The text below walks through data of patent publication US12084416B2, “Substituted sulfonylurea derivatives” (Zydus Lifesciences Limited, priority 2019, dated 2024).

The first assay concerns IL-1β. In words: In-vivo LPS and ATP induced IL-1β assay. The following applies: Mus musculus, 2.5 h; Dose 10 mpk, po; female C57 mice; serum IL-1β by ELISA; read-out: % IL-1β inhibition in LPS + ATP challenged C57 mice. On the procedure:
All the animal experiments were carried out in female rats and mice, bred in-house. Animals were housed in groups of 6 animals per cage, for a week, in order to habituate them to vivarium conditions (25 f 4° C., 60-65% relative humidity, 12:12 h light:dark cycle, with lights on at 7.30 am). All the animal experiments were carried out according to the internationally valid guidelines following approval by the ‘Zydus Research Center animal ethical committee’.
Female C57 mice (6-8 weeks) received intraperitoneal injection of 50 μg/mouse of lipopolysaccharide (LPS) in PBS. Animals were treated immediately with the test compounds or the vehicle. After 2 h of LPS injection, animals were administered with ATP at 12.5 mg/mouse dissolved in PBS via intraperitoneal route. After 30 minutes of ATP injection, serum was collected for IL-1β estimation by ELISA.
A general note: An ELISA detects its analyte on a solid surface through an enzyme-linked reagent.
Regarding `CN1CCC[C@H]1/C=C/S(=O)(=O)NC(=O)Nc1cc2c(c3c1CCC3)CCC2` [Example 102, (E)-N-((1,2,3,6,7,8-hexahydro-as-indacen-4-yl)carbamoyl)-2-(1-methylpyrrolidin-2-yl)ethene-1-sulfonamide], the inhibition in vivo at 10 mg/kg was 74%. The same measure, in the same setting: the figure for `O=C(Nc1c2c(cc3c1CCC3)CCC2)NS(=O)(=O)/C=C/C1CCCO1` (stereo not drawn) [Example 73, (E)-N-((1,2,3,5,6,7-hexahydro-s-indacen-4-yl)carbamoyl)-2-(tetrahydrofuran-2-yl)ethene-1-sulfonamide] is 80%; for `CC(C)N1CCC[C@@H]1/C=C/S(=O)(=O)NC(=O)Nc1c2c(cc3c1CCC3)CCC2` [Example 22, (R,E)-N-((1,2,3,5,6,7-hexahydro-s-indacen-4-yl)carbamoyl)-2-(1-isopropylpyrrolidin-2-yl)ethene-1-sulfonamide] it is 83%. Still for that read-out and setting: for `CN1CCCCC1/C=C/S(=O)(=O)NC(=O)Nc1c2c(cc3c1CCC3)CCC2` (stereo not drawn) [Example 101, (E)-N-((1,2,3,5,6,7-hexahydro-s-indacen-4-yl)carbamoyl)-2-(1-methylpiperidin-2-yl)ethene-1-sulfonamide] the value was 82%.

The subject of another assay is IL-1β. In words: In-vitro IL-1β inhibition assay in PMA-differentiated, LPS-primed, ATP-stimulated THP1 cells. Particulars: Homo sapiens, THP-1, read-out: IC50 (nM), invitro IL-1β inhibitory activity. In kind it is cell-based. On the procedure: THP1 monocytes were differentiated with PMA (100 ng/mL) and incubated at 37 deg C. for 20 hrs in presence of 5% CO2. 2×10^5 differentiated cells were plated per well of 96 well tissue culture plates. The cells were primed using 500 ng/mL Lipopolysaccharide and incubating for 4 h under the same condition. The cells were then treated with various concentrations of the compounds for 30 min followed by treatment with 5 mM ATP for 1 hr. The supernatants were collected and analyzed by IL-1b (Mabtech Cat #3415-1H-20) or TNF-α (Mabtech; Cat #3510-1H-20) detection kit. The data were analyzed using GraphPad Prism V7.0. Dose Response Curve (DRC) was constructed to determine the IC50 value by fitting percentage […] data to the GraphPad Prism using nonlinear regression analysis.
For the compound `CC[C@@]1(/C=C/S(=O)(=O)NC(=O)Nc2c3c(cc4c2CCC4)CCC3)CCCN1C(=O)OC(C)(C)C` [Example 149, tert-butyl(S,E)-2-ethyl-2-(2-(N-((1,2,3,5,6,7-hexahydro-s-indacen-4-yl)carbamoyl)sulfamoyl)vinyl)pyrrolidine-1-carboxylate], the IC50 turned out to be 11 nM. Still for that read-out and setting: the figure for `CN1CCC[C@@]1(C)/C=C/S(=O)(=O)NC(=O)Nc1c2c(cc3c1CCC3)CCC2` [Example 144, sodium(S,E)-((2-(1,2-dimethylpyrrolidin-2-yl)vinyl)sulfonyl)((1,2,3,5,6,7-hexahydro-s-indacen-4-yl)carbamoyl)amide] is 8.6 nM. On the same count and under the same terms, the figure for `CN1CCC[C@@]1(C)/C=C/S(=O)(=O)NC(=O)Nc1cc2c(c3c1CCC3)CCC2` [Example 153, (S,E)-2-(1,2-dimethylpyrrolidin-2-yl)-N-((1,2,3,6,7,8-hexahydro-as-indacen-4-yl)carbamoyl)ethene-1-sulfonamide] is 32 nM. On the same count and under the same terms, the figure for `O=C(Nc1c2c(cc3c1CCC3)CCC2)NS(=O)(=O)/C=C/[C@H]1CCCN1C1CCSCC1` [Example 139, Sodium(R,E)-((1,2,3,5,6,7-hexahydro-s-indacen-4-yl)carbamoyl)((2-(1-(tetrahydro-2H-thiopyran-4-yl)pyrrolidin-2-yl)vinyl)sulfonyl)amide] is 21 nM. Take `CC(C)(C)OC(=O)N1CCC1(C)/C=C/S(=O)(=O)NC(=O)Nc1c2c(cc3c1CCC3)CCC2` (stereo not drawn) [Example 147, tert-butyl(E)-2-(2-(N-((1,2,3,5,6,7-hexahydro-s-indacen-4-yl)carbamoyl)sulfamoyl)vinyl)-2-methylazetidine-1-carboxylate]: the concentration for half-maximal inhibition (IC50) is 11 nM.

Still in this assay, the particulars now being: Homo sapiens, THP-1; THP1 monocytes differentiated with PMA, primed with 500 ng/mL LPS, compound 30 min, 5 mM ATP 1 hr; IL-1β in supernatant; read-out: IC50 (nM), invitro IL-1β inhibitory activity.
As to `CS(=O)(=O)N1CCCC(/C=C/S(=O)(=O)NC(=O)Nc2c3c(cc4c2CCC4)CCC3)C1` (stereo not drawn) [Example 84, (E)-N-((1,2,3,5,6,7-hexahydro-s-indacen-4-yl)carbamoyl)-2-(1-(methylsulfonyl)piperidin-3-yl)ethenesulfonamide], the 50% inhibitory concentration (IC50) is 8.5 nM.

On to `C=CCN1CCC[C@H]1/C=C/S(=O)(=O)NC(=O)Nc1c2c(cc3c1CCC3)CCC2` [Example 127, (S,E)-2-(1-allylpyrrolidin-2-yl)-N-((1,2,3,5,6,7-hexahydro-s-indacen-4-yl)carbamoyl)ethene-1-sulfonamide], for which the concentration for half-maximal inhibition (IC50) was 5.6 nM. The same measure, in the same setting: the figure for `CC(=O)N1CCC1/C=C/S(=O)(=O)NC(=O)Nc1c2c(cc3c1CCC3)CCC2` (stereo not drawn) [Example 125, (E)-2-(1-acetylazetidin-2-yl)-N-((1,2,3,5,6,7-hexahydro-s-indacen-4-yl)carbamoyl)ethene-1-sulfonamide] is 16.4 nM; for `O=C(Nc1c2c(cc3c1CCC3)CCC2)NS(=O)(=O)/C=C/[C@@H]1CCCN1S(=O)(=O)Cc1ccccc1` [Example 91, (S,E)-2-(1-(benzylsulfonyl)pyrrolidin-2-yl)-N-((1,2,3,5,6,7-hexahydro-s-indacen-4-yl)carbamoyl)ethenesulfonamide] it is 2.9 nM; for `O=C(Nc1c2c(cc3c1CCC3)CCC2)NS(=O)(=O)/C=C/[C@@H]1CCCN1S(=O)(=O)c1cccnc1` [Example 63, (S,E)-N-((1,2,3,5,6,7-hexahydro-s-indacen-4-yl)carbamoyl)-2-(1-(pyridin-3-ylsulfonyl)-pyrrolidin-2-yl)ethenesulfonamide] it is 8 nM. Regarding `O=C(Nc1c2c(cc3c1CCC3)CCC2)NS(=O)(=O)/C=C/[C@H]1CCCN1S(=O)(=O)c1cccc(F)c1` [Example 13, (R,E)-2-(1-((3-fluorophenyl)sulfonyl)pyrrolidin-2-yl)-N-((1,2,3,5,6,7-hexahydro-s-indacen-4-yl)carbamoyl)ethenesulfonamide], the IC50 turned out to be 9 nM. On the same count and under the same terms, for `C[C@@]1(/C=C/S(=O)(=O)NC(=O)Nc2c3c(cc4c2CCC4)CCC3)CCCN1S(=O)(=O)C1CC1` [Example 129, (S,E)-2-(1-(cyclopropylsulfonyl)-2-methylpyrrolidin-2-yl)-N-((1,2,3,5,6,7-hexahydro-s-indacen-4-yl)carbamoyl)ethene-1-sulfonamide] the value was 5.9 nM. Take `O=C(Nc1c2c(cc3c1CCC3)CCC2)NS(=O)(=O)/C=C/C1CCOCC1` [Example 71, (E)-N-((1,2,3,5,6,7-hexahydro-s-indacen-4-yl)carbamoyl)-2-(tetrahydro-2H-pyran-4-yl)ethenesulfonamide]: the concentration for half-maximal inhibition (IC50) came out at 87 nM.

As to `CC(=O)N1CCC[C@@H]1/C=C/S(=O)(=O)NC(=O)Nc1c2c(cc3c1CCC3)CCC2` [Example 8, (R,E)-2-(1-acetylpyrrolidin-2-yl)-N-((1,2,3,5,6,7-hexahydro-s-indacen-4-yl)carbamoyl)-ethene-1-sulfonamide], the half-maximal inhibitory concentration (IC50) was found to be 10.7 nM. For `CC(C)(C)OC(=O)N1CCC[C@@H]1/C=C/S(=O)(=O)NC(=O)Nc1c2c(cc3c1CCC3)CCC2` [Example 10, tert-butyl (R,E)-2-(2-(N-((1,2,3,5,6,7-hexahydro-s-indacen-4-yl)carbamoyl)sulfamoyl)-vinyl)pyrrolidine-1-carboxylate], the IC50 was 64 nM. On the same count and under the same terms, for `CS(=O)(=O)CCCN1CCC[C@@H]1/C=C/S(=O)(=O)NC(=O)Nc1c2c(cc3c1CCC3)CCC2` [Example 23, (R,E)-N-((1,2,3,5,6,7-hexahydro-s-indacen-4-yl)carbamoyl)-2-(1-(3-(methylsulfonyl)propyl)pyrrolidin-2-yl)ethenesulfonamide] the value was 14 nM. On the same count and under the same terms, for `CC(C)(C)OC(=O)N1CC2CC(N3CCC[C@@H]3/C=C/S(=O)(=O)NC(=O)Nc3c4c(cc5c3CCC5)CCC4)CC2C1` (stereo partly drawn) [Example 131, tert-butyl 5-((R)-2-((E)-2-(N-((1,2,3,5,6,7-hexahydro-s-indacen-4-yl)carbamoyl)sulfamoyl)vinyl)pyrrolidin-1-yl)hexahydrocyclopenta[c]pyrrole-2 (1H)-carboxylate] the value was 16 nM; for `CCS(=O)(=O)N1CCC[C@@H]1/C=C/S(=O)(=O)NC(=O)Nc1c2c(cc3c1CCC3)CCC2` [Example 21, (R,E)-2-(1-(ethylsulfonyl)pyrrolidin-2-yl)-N-((1,2,3,5,6,7-hexahydro-s-indacen-4-yl)carbamoyl)ethene-1-sulfonamide], 2.4 nM. On to `C[C@@]1(/C=C/S(=O)(=O)NC(=O)Nc2c3c(cc4c2CCC4)CCC3)CCCN1` [Example 105, (S,E)-N-((1,2,3,5,6,7-hexahydro-s-indacen-4-yl)carbamoyl)-2-(2-methylpyrrolidin-2-yl)ethene-1-sulfonamide], for which the concentration for half-maximal inhibition (IC50) was 61 nM.

`O=C(Nc1c2c(cc3c1CCC3)CCC2)NS(=O)(=O)/C=C/[C@H]1CCCN1C(=O)c1cnccn1` [Example 14, (R,E)-N-((1,2,3,5,6,7-hexahydro-s-indacen-4-yl)carbamoyl)-2-(1-(pyrazine-2-carbonyl)pyrrolidin-2-yl)ethenesulfonamide]: the IC50 was found to be 17 nM. With `O=C(Nc1c2c(cc3c1CCC3)CCC2)NS(=O)(=O)/C=C/C1CCCCN1` (stereo not drawn) [Example 100, (E)-N-((1,2,3,5,6,7-hexahydro-s-indacen-4-yl)carbamoyl)-2-(piperidin-2-yl)ethene-1-sulfonamide], the concentration for half-maximal inhibition (IC50) is 70 nM. Take `O=C(Nc1c2c(cc3c1CCC3)CCC2)NS(=O)(=O)/C=C/[C@@H]1CCCN1S(=O)(=O)c1ccc(Cl)s1` [Example 90, (S,E)-2-(1-((5-chlorothiophen-2-yl)sulfonyl)pyrrolidin-2-yl)-N-((1,2,3,5,6,7-hexahydro-s-indacen-4-yl)carbamoyl)ethenesulfonamide]: the IC50 worked out at 16 nM. `CC(C)(C)OC(=O)N1CCC[C@@]1(C)/C=C/S(=O)(=O)NC(=O)Nc1c2c(cc3c1CCC3)CCC2` [Example 111, tert-butyl(S,E)-2-(2-(N-((1,2,3,5,6,7-hexahydro-s-indacen-4-yl)carbamoyl)sulfamoyl)vinyl)-2-methylpyrrolidine-1-carboxylate]: the IC50 stood at 4.3 nM.

The IC50 is the concentration at which inhibition is half-maximal.
